Values of other authors as cited in US12606590B2, “MRNA 5′-end cap analogs, RNA molecule incorporating the same, uses thereof and method of synthesizing RNA molecule or peptide” (Uniwersytet Warszawski, priority 2020, dated 2026).

Conditions: in vitro and in vivo; single atom substitution in β position of cap oligophosphate bridge

CO[C@@H]1[C@H](O)[C@@H](COP(=O)(O)OP(=O)([S-])OP(=O)(O)OC[C@H]2O[C@@H](n3cnc4c(=O)[nH]c(N)nc43)[C@H](O)[C@@H]2O)O[C@H]1n1c[n+](C)c2c(O)nc(N)nc21 (stereo partly drawn) [β-S-ARCA]
mRNA translation efficiency: significant increase in mRNA translation efficiency
